24 compounds from patent US4946858A, “Novel spirosuccinimides as aldose reductase inhibitors and antihyperglycemic agents” (American Home Products Corporation, priority 1989, dated 1990) can be followed below.

Where two headings read alike, the source gives them in different places.

Broadly, the inhibition is the share of the control response that was lost under treatment.

For one test, the target named is T1, aldose reductase (Bos taurus, UniProt P16116).
T1 construct: preparation of the enzyme from bovine lens; from tissue; host or cells: bovine lens
Put plainly: In vitro inhibition of aldose reductase (modified Hayman and Kinoshita procedure, enzyme from bovine lens). The test is classed as biochemical. To be noted: read-out: % Inhibition in Vitro. An excerpt:
In the present case the procedure of Hayman and Kinoshita was modified in that the final chromatography step was omitted in the preparation of the enzyme from bovine lens.

Another test deals with galactosemic rats. Briefly: Lowering of galactitol (dulcitol) accumulation in tissues of galactosemic rats. The test is classed as in vivo, rat (Sprague-Dawley). Particulars: for % Lowering of dulcitol accumulation In Vivo, % D (diaphragm) / % Lowering of dulcitol accumulation In Vivo, % L (lens) / % Lowering of dulcitol accumulation In Vivo, % N (sciatic nerve): 4 days, vs untreated galactosemic rats. An excerpt: The aldose reductase inhibiting property of the compounds of this invention and the utilization of the compounds in preventing, diminishing and alleviating diabetic complications by lowering polyol accumulation were also demonstrable in experiments using galactosemic rats, see Dvornik et al, Science, 182, 1146 (1973). Such experiments are exemplified hereinbelow after the listing of the following general comments pertaining to these experiments:
(a) Four or more groups of six male rats, 50-70 g, Sprague-Dawley strain, were used. The first group, the control group, was fed a mixture of laboratory chow (rodent Laboratory Chow, Purina) and glucose at 20% (w/w %) concentration. The untreated galactosemic group and the drug-treated groups were fed a similar diet in which galactose is substituted for glucose. The test compound was either admixed to the diet or administered by gavage. In experiments involving compound administration in the diet, the average dose administered was calculated from the actual food intake of the animals in each group. The concentration of galactose in the diet of the treated groups was the same as that for the untreated galactosemic groups.
(b) After four days, the amimals were killed by decapitation. The eyeballs were removed and punctured with a razor blade; the freed lenses were rolled gently on filter paper and weighed. The sciatic nerves were dissected as completely as possible and weighed. Both tissues when frozen can be kept up to two weeks before being analyzed for galactitol.
(c) The polyol determination was performed by a modification of the procedure of M. Kraml and L. Cosyns, Clin. Biochem., 2, 373 (1969). Only two minor reagent changes were made: (a) the rinsing mixture was an aqueous 5% (w/v) trichloroacetic acid solution and (b) the stock solution was prepared by dissolving 25 mg of dulcitol in 100 mL of an aqueous trichloroacetic acid solution. [N.B.: For each experiment the average value found in the tissue from rats fed the glucose diet was subtracted from the individual values found in the corresponding tissue in galactose-fed rats to obtain the amount of polyol accumulated.]
The figures under L, N, and D represent the percentage decrease of galactitol accumulation in the tissues of the lens, sciatic nerve, and diaphragm, respectively, for treated rats as compared to untreated rats.

As to `CN1C(=O)c2c(Cl)cccc2C12CC(=O)NC2=O` (stereo not drawn) [Example 126], at aldose reductase (10^-5 M), the inhibition at 10 µM was 85%. Also, at aldose reductase, the inhibition at 1 µM was determined as 65%.
Take `O=C1CC2(C(=O)N1)c1ccccc1S(=O)(=O)N2Cc1ccccc1` (stereo not drawn) [Example 103]: the inhibition at 10 µM on aldose reductase (10^-5 M) stood at 45%. Besides, the inhibition at 1 µM on aldose reductase (10^-6 M) is 5%.
Turning to `CN1C(=O)c2cc(Br)ccc2C12CC(=O)NC2=O` (stereo not drawn) [Example 127], on aldose reductase (10^-5 M), the inhibition at 10 µM worked out at 92%. Also, the inhibition at 1 µM at aldose reductase (10^-6 M) stood at 71%.
On the same counts, the results for `COC(=O)c1ccc2c(c1)C1(CC(=O)NC1=O)N(C)C2=O` (stereo not drawn) [Example 134] are 87% and 49%.
With `COc1ccc2c(c1)C(=O)N(C)C21CC(=O)NC1=O` (stereo not drawn) [Example 129], the inhibition at 10 µM at aldose reductase (10^-5 M) came to 83%. For the same compound, the inhibition at 1 µM on aldose reductase (10^-6 M) was determined as 56%.
Taken in the same sequence, the figures for `CN1C(=O)c2ccc([N+](=O)[O-])cc2C12CC(=O)NC2=O` (stereo not drawn) [Example 132] were 91% and 77%.
In the case of `CN1C(=O)c2cccc(Cl)c2C12CC(=O)NC2=O` (stereo not drawn) [Example 125], the inhibition at 10 µM at aldose reductase (10^-5 M) was 88%. Moreover, the inhibition at 1 µM on aldose reductase (10^-6 M) is 57%. Further, the “% Lowering of dulcitol accumulation In Vivo, % D (diaphragm)” value (from here on “% Lowering … (diaphragm)”) with galactosemic rats (3 mg/kg) worked out at 23%; with galactosemic rats (6 mg/kg) it was 37%; in the test on galactosemic rats (10 mg/kg), 47%. The “% Lowering of dulcitol accumulation In Vivo, % L (lens)” value (“% Lowering … (lens)” below) in the test on galactosemic rats (6 mg/kg) came to 7%; with galactosemic rats (10 mg/kg), 13%. Also, the “% Lowering of dulcitol accumulation In Vivo, % N (sciatic nerve)” value (shortened to “% Lowering … (sciatic nerve)”) is 21% with galactosemic rats (6 mg/kg, sciatic nerve) and 32% with galactosemic rats (10 mg/kg, sciatic nerve).
Take `CN1C(=O)c2cc(Cl)ccc2C12CC(=O)NC2=O` (stereo not drawn) [Example 120, 5-chloro-2-methylspiro[1H-isoindole-1,3'-pyrrolidine]-2',3,5'(2H)-trione]: the inhibition at 10 µM on aldose reductase (10^-5 M) stood at 88%. Besides, the inhibition at 1 µM at aldose reductase (10^-6 M) stood at 72%. In addition, the “% Lowering … (sciatic nerve)” value with galactosemic rats (3 mg/kg, sciatic nerve) came to 21%. In the test with galactosemic rats (81 mg/kg), the “% Lowering … (diaphragm)” value was found to be 80% and the “% Lowering … (lens)” value is on record as 54%. Besides, the “% Lowering … (sciatic nerve)” value in the test with galactosemic rats (81 mg/kg, sciatic nerve) was 77%.
As to `Cc1cccc2c1C(=O)N(C)C21CC(=O)NC1=O` (stereo not drawn) [Example 135, 2,4-dimethylspiro[1H-isoindole-1,3'-pyrrolidine]-2',3,5'(2H)-trione], at aldose reductase (10^-5 M), the inhibition at 10 µM is 84%. Further, the inhibition at 1 µM at aldose reductase (10^-6 M) worked out at 59%. Besides, the “% Lowering … (diaphragm)” value worked out at 37% with galactosemic rats (3 mg/kg), 57% in the test with galactosemic rats (6 mg/kg) and 69% in the test on galactosemic rats (10 mg/kg). Moreover, the “% Lowering … (sciatic nerve)” value was found to be 50% in the test with galactosemic rats (6 mg/kg, sciatic nerve) and 63% in the test on galactosemic rats (10 mg/kg, sciatic nerve). In the test on galactosemic rats (10 mg/kg), the “% Lowering … (lens)” value worked out at 29%.
For the compound `CN1C2(CC(=O)NC2=O)c2ccccc2S1(=O)=O` (stereo not drawn) [Example 101, 2,3-Dihydro-2-methylspiro[benzisothiazole-3,3'-pyrrolidine]-2',5'-dione 1,1-Dioxide], the inhibition at 10 µM at aldose reductase (10^-5 M) worked out at 40%. Besides, at aldose reductase (10^-6 M), the inhibition at 1 µM turned out to be 6%.
In the case of `CCN1C(=O)c2ccc(Cl)cc2C12CC(=O)NC2=O` (stereo not drawn) [Example 128], the inhibition at 10 µM at aldose reductase (10^-5 M) came to 78%. The inhibition at 1 µM at aldose reductase (10^-6 M) amounted to 37%.
For the compound `O=C1NC(=O)[C@@]2(CCOc3ccc(F)cc32)N1` [Sorbinil, [(4S)2,3-dihydro-6-fluorospiro[4H1-benzopyran-4,4imidazoli-dine2',5dione, reference compound], the inhibition at 10 µM on aldose reductase (10^-5 M) is 83%. In addition, the inhibition at 1 µM on aldose reductase (10^-6 M) amounted to 45%. Besides, in the test with galactosemic rats (4 mg/kg), the “% Lowering … (diaphragm)” value came out at 69% and the “% Lowering … (lens)” value came out at 46%. In addition, the “% Lowering … (sciatic nerve)” value with galactosemic rats (4 mg/kg, sciatic nerve) was 55%.
Take `CN1C(=O)c2cc3ccccc3cc2C12CC(=O)NC2=O` (stereo not drawn) [Example 124, 2-methylspiro[1H-benz[f]isoindole-1,3'-pyrrolidine]-2',3,5'(2H)-trione]: the inhibition at 10 µM at aldose reductase (10^-5 M) was 95%. The inhibition at 1 µM at aldose reductase (10^-6 M) was 82%. For the same compound, in the test with galactosemic rats (10 mg/kg), the “% Lowering … (diaphragm)” value is on record as 59% and the “% Lowering … (lens)” value came out at 14%. The “% Lowering … (sciatic nerve)” value in the test on galactosemic rats (10 mg/kg, sciatic nerve) was 47%.
`CSc1ccc2c(c1)C(=O)N(C)C21CC(=O)NC1=O` (stereo not drawn) [Example 130]: at aldose reductase (10^-5 M), the inhibition at 10 µM worked out at 87%. Besides, the inhibition at 1 µM at aldose reductase (10^-6 M) stood at 60%.
On to `Cc1ccc2c(c1)C(=O)N(C)C21CC(=O)NC1=O` (stereo not drawn) [Example 133], for which the inhibition at 10 µM at aldose reductase (10^-5 M) is 89%. The inhibition at 1 µM at aldose reductase (10^-6 M) worked out at 61%.
Take `CN1C(=O)c2ccc(Cl)cc2C12CC(=O)NC2=O` (stereo not drawn) [Example 102, 6-Chloro-2-methylspiro[1H-isoindole-1,3'-pyrrolidine]-2',3,5'(2H)-trione]: on aldose reductase (10^-5 M), the inhibition at 10 µM came out at 91%. The inhibition at 1 µM at aldose reductase (10^-6 M) was determined as 80%. Moreover, the “% Lowering … (diaphragm)” value came to 43% with galactosemic rats (3 mg/kg) and 81% in the test with galactosemic rats (25 mg/kg). The results for the “% Lowering … (lens)” value with galactosemic rats (3 mg/kg) and in the test with galactosemic rats (25 mg/kg) were 9% and 51%, respectively. Further, the “% Lowering … (sciatic nerve)” value amounted to 38% in the test with galactosemic rats (3 mg/kg, sciatic nerve) and 84% in the test on galactosemic rats (25 mg/kg, sciatic nerve). In the test with galactosemic rats (3 mg/kg/day, sciatic nerve), the “comparison with sorbinil and tolrestat in the sciatic nerve” value was “comparable results to sorbinil at 4 mg/kg/day and tolrestat at 3 mg/kg/day in the sciatic nerve”.
As for `CN1C(=O)c2cc(-c3ccccc3)ccc2C12CC(=O)NC2=O` (stereo not drawn) [Example 136], on aldose reductase (10^-5 M), the inhibition at 10 µM was determined as 90%. For the same compound, the inhibition at 1 µM at aldose reductase (10^-6 M) turned out to be 81%. The “% Lowering … (diaphragm)” value was found to be 29% with galactosemic rats (3 mg/kg), 43% in the test on galactosemic rats (6 mg/kg) and 55% in the test on galactosemic rats (9 mg/kg). In addition, the “% Lowering … (lens)” value with galactosemic rats (6 mg/kg) amounted to 13%; in the test on galactosemic rats (9 mg/kg), 6%. For the same compound, the “% Lowering … (sciatic nerve)” value is 27% with galactosemic rats (6 mg/kg, sciatic nerve) and 34% in the test with galactosemic rats (9 mg/kg, sciatic nerve).
Regarding `O=C1CC2(C(=O)N1)c1ccccc1S(=O)(=O)N2Cc1ccc2ccccc2c1Br` (stereo not drawn) [Example 112], the inhibition at 10 µM on aldose reductase (10^-5 M) turned out to be 59%. Besides, on aldose reductase (10^-6 M), the inhibition at 1 µM worked out at 25%.
Taken in the same sequence, the figures for `O=C1CC2(C(=O)N1)c1cc(Cl)ccc1C(=O)N2Cc1ccc(Br)cc1F` (stereo not drawn) [Example 121] were 85% and 70%.
Turning to `CN1C(=O)c2ccc(F)cc2C12CC(=O)NC2=O` (stereo not drawn) [Example 123], at aldose reductase (10^-6 M), the inhibition at 1 µM came to 74%. For the same compound, the inhibition at 10 µM at aldose reductase was 93%.
For the compound `COc1ccc2c(C(=S)N(C)CC(=O)O)cccc2c1C(F)(F)F` [Tolrestat, reference compound], the “% Lowering … (diaphragm)” value with galactosemic rats (3 mg/kg) came to 80%. The “% Lowering … (sciatic nerve)” value in the test with galactosemic rats (3 mg/kg, sciatic nerve) came to 30%.
As for `CCCN1C(=O)c2cc(Cl)c(Cl)cc2C12CC(=O)NC2=O` (stereo not drawn) [Example 131], the inhibition at 10 µM at aldose reductase (10^-5 M) was determined as 49%. Moreover, the inhibition at 1 µM at aldose reductase (10^-6 M) worked out at 12%.
On the same counts, the results for `O=C1CC2(C(=O)N1)c1ccccc1S(=O)(=O)N2Cc1ccc2ccccc2c1` (stereo not drawn) [Example 113] are 57% and 20%.
With `CN1C(=O)c2ccccc2C12CC(=O)NC2=O` (stereo not drawn) [Example 117], on aldose reductase (10^-6 M), the inhibition at 1 µM came to 45%.
